Test results from patent US20230340498A1, “COMPOSITIONS AND METHODS FOR INDUCIBLE ALTERNATIVE SPLICING REGULATION OF GENE EXPRESSION” (The Children's Hospital of Philadelphia, priority 2020, published 2023).

Columns and labels:
[1] = tested on: Ai14 reporter genomic locus; experiment: In vivo AAVPHPeB SF3B3.Xon SaCas9 editing of Ai14 reporter locus in brain; conditions: Ai14 mice, tdTomato expression
Excerpt: To assess the applicability of Xon for brain targeted therapies, the SF3B3.Xon was packaged into AAVPHPeB vector to control the expression of SaCas9 protein and delivered to transgenic Ai14 reporter mice and BacHD mice (FIGS. 9A, 9C).

AAV9.X^on.eGFP = experiment: In vivo induction of AAV9.X^on.eGFP in mice by oral LMI070
Description: Animals and histology. Animal protocols were approved by The Children’s Hospital of Philadelphia Institutional Animal Care and Use Committee. Five to six-week-old male C57Bl6/j mice were obtained from Jackson Laboratories (Bar Harbor, ME, USA). AAV vectors (AAV9. X^on.eGFP or AAVPHBeB.X^on.eGFP; generated at the CHOP Research Vector Core) were administrated by retroorbital injection at 7-8 weeks of age with a total of 3E11 vg in 150 µL infused. After 4 weeks, a single dose of LMI070 (5 or 50 mg/kg, MedChemExpress HY-19620) or vehicle solution was administrated by oral gavage. After 18-24 h, mice used for biochemical or molecular studies were anesthetized and perfused with 0.9% cold saline mixed with 2-ml RNAlater (Ambion) solution. Brains and liver samples were collected, flash frozen in liquid nitrogen, and stored at -80 C until use. For immunohistochemistry studies, mice were perfused with 15 mL ice-cold 0.1 M PBS followed by 15 mL 4% paraformaldehyde. For brain sections, eGFP visualization was done by IHC using rabbit anti-GFP antibody (Invitrogen, 1:200) followed by Alexa488-conjugated goat anti-rabbit (Invitrogen, 1:500) and Alexa488-conjugated chicken anti-goat (Invitrogen, 1:500). Slices were mounted on Superfrost plus slides and coverslips mounted using fluoro-gel mounting media. Sections were analyzed using a DM6000B Leica microscope equipped with a L5 ET filter cube (ex:em of 470±20:525±15 nm and dichroic 495 nm), a 20X HC APO PLAN (N.A. 0.70) lens connected to a Sola Light Engine LED light source (Lumencor). Images were collected with a Hammatsu Orca flash4.0 monochrome camera controlled by Leica LAS X (v.3.0.3) software. Brain images represent a 7.98 µm thick z-stack deconvoluted by 3 iterations of the Blind algorithm.
RNA extraction, RT-PCR, and Splicing assays. Total RNA was extracted using Trizol (Life Technologies) according to the manufacturer’s protocol, with the exception of 1 µL Glycoblue (Life Technologies) in addition to the aqueous phase on the isopropanol precipitation step and a single wash with cold 70% ethanol. To determine HTT expression levels after transfection, RNA samples were quantified by spectrophotometry and subsequently cDNAs generated from […] of total RNA with random hexamers (TaqMan RT reagents, Applied Biosystems). To determine human HTT expression levels in HEK293 cells, we used TaqMan probes for human HTT and glyceraldehyde 3-phosphate dehydrogenase (GAPDH) mRNAs obtained from Applied Biosystems. Relative HTT gene expression was determined using the ddCt method. To determine splicing of the SMN2-on and Xon switches, 2 µg of total RNA from HEK293 cells or tissue samples was treated with DNAseI Free kit (Thermofisher) followed by cDNA generation using the High capacity cDNA kit (Thermofisher). Splicing was determined by PCR using the Phusion High-Fidelity polymerase (Thermofisher) and PCR products separated on a 2.5% agarose gel pre-stained with EtBr and spliced-in and spliced-out band densitometry performed using with the ChemiDoc Imaging System (BioRad) and Image Lab analysis software. Splicing induction from mouse tissues was determined using two custom TaqMan assays designed to determine total or LMI070-spliced in mRNA transcripts. The percentage of induction was determined by dividing the average Ct novel exon and average Ct Total, relative to control animals injected with AAV virus plus vehicle.
Western Blots. HEK293 cells were rinsed and lysed with Passive Lysis Buffer (PBL, Promega), protein concentrations determined using the DC protein assay (Bio-Rad), and 10-20 µg of protein loaded on a 3%-8% NuPAGE Tris-Acetate Gel in tris-acetate buffer (Novex Life Technologies) or a 4-12% NuPAGE TrisBis NuPAGE gels in MES buffer (Novex Life Technologies) to determine HTT, SaCas9, or eGFP protein levels, respectively, with β-catenin as loading control. […]

SMN2 exon 7 = experiment: SMN2-on cassette exon 7 splicing assay (RT-PCR) in transfected HEK293 cells; type: cell-based, Human; conditions: LMI070 compared with RG7800
Description: Cell culture, transfection, and LMI070/RG7800 treatment. Human embryonic kidney (HEK293) cells (obtained from CHOP Research Vector Core stock) were maintained in DMEM media containing 10% Fetal Bovine Serum (FBS), 1% L-Glutamine and 1% penicillin/streptomycin at 37° C. with 5% CO2. Cells were cultured in 24 well plates and transfected at 80-90% confluence using Lipofectamine 2000 transfection reagent, according to the manufacturer’s protocol. For all experiments, 4 hours after plasmid transfection, cells were treated with LMI070 (MedChemExpress, HY-19620, suspended in DMSO) or RG7800 (MedChemExpress, HY-101792A, suspended in H2O) at the indicated concentrations. Cells were tested for mycoplasma by Research Vector Core. […]
RNA extraction, RT-PCR, and Splicing assays. […] To determine HTT expression levels after transfection, RNA samples were quantified by spectrophotometry and subsequently cDNAs generated from […] of total RNA with random hexamers (TaqMan RT reagents, Applied Biosystems). […] Relative HTT gene expression was determined using the ddCt method. […] Splicing was determined by PCR using the Phusion High-Fidelity polymerase (Thermofisher) and PCR products separated on a 2.5% agarose gel pre-stained with EtBr and spliced-in and spliced-out band densitometry performed using with the ChemiDoc Imaging System (BioRad) and Image Lab analysis software. […]

[2] = spliced expression cassette relative to vehicle, LMI070 50 mg/kg

In the case of `CC1(C)CC(Oc2ccc(-c3ccc(-c4cn[nH]c4)cc3O)nn2)CC(C)(C)N1` [LMI070, 5-(1H-Pyrazol-4-yl)-2-(6-((2,2,6,6-tetramethylpiperidin-4-yl)oxy)pyridazin-3-yl)phenol], the “editing of the Ai14 reporter genomic locus (brain)” value [1] is reported as “only observed on mice treated with LMI070”, the “eGFP expression in sections from liver” value (AAV9.X^on.eGFP; AAV9.X^on.eGFP 3E11 vg/mouse IV, single dose LMI070 5 or 50 mg/kg, 24 h later) is reported as “notable eGFP expression” and the “induction in liver after repeat dosing” value (AAV9.X^on.eGFP; LMI070 50 mg/kg oral, second dose after one week washout, histology, western blot, splicing assay) is reported as “evident in liver after the first and the second dose”. The “induction in skeletal muscle and heart” value (AAV9.X^on.eGFP; LMI070 50 mg/kg oral, histology and splicing assay) was “notable”, the “protein levels and novel exon splicing versus dose” value (AAV9.X^on.eGFP; liver, LMI070 5 or 50 mg/kg) was “directly correlated to the LMI070 dose” and the “relative level of induction in heart” value (AAV9.X^on.eGFP; [2]) was ~ 3000 fold. For the same compound, the “relative level of induction in liver” value (AAV9.X^on.eGFP; [2]) was about 1000 fold and the “relative activity in the setting of the SMN2-on cassette” value (SMN2 exon 7) was “more active than RG7800”.
